Data reported in patent US20080166403A1, “Long circulating liposome” (Industrial Technology Research Institute, priority 2003, published 2008).

Test: Circulation time of liposomes in the body: Doxorubicin concentration in rat blood by a pharmacokinetics method with HPLC analysis
Format: in vivo
Details: 8 hours after injection, FIG. 1
Procedure: In this example, the concentration of Doxorubicin in the blood is determined by a pharmacokinetics method, and HPLC analysis is performed subsequently.
Doxo. is compared with DO503 liposomes (Example 1) and DO502 liposomes (Example 2), wherein Doxo. represents the free doxorubicin solution. […] Especially for DO503, it even exists in rat blood 48 hours after injection.

COc1cccc2c1C(=O)c1c(O)c3c(c(O)c1C2=O)C[C@@](O)(C(=O)CO)C[C@@H]3O[C@H]1C[C@H](N)[C@H](O)[C@H](C)O1 [Doxo., doxorubicin]
Doxorubicin concentration in rat blood: almost no Doxorubicin concentration detected
